From US20060140857A1, “Method of the administration of drugs with binding affinity for plasma protein and preparation to be used in the method” (NIHON MEDI-PHYSICS CO., LTD., priority 1999, published 2006)

What was measured:
human plasma protein = test: Displacement of 123I-IMP binding to human plasma protein; settings: human serum, control without second drug
[1] = Free fraction of 123I-IMP in the blood of rats with verapamil loading; type: in vivo, rat
Procedure: Under the same conditions as mentioned above concerning the constitution of control and testing group, timings of decapitation, and dose of drugs, administrations of the drugs and decapitations of rats were conducted, and 3-5 ml of blood per one rat was sampled.

[2] = Biodistribution of 123I-IMP in rat with verapamil loading; settings: rats
Procedure: The rats were decapitated at 2, 5, 10, 30 and 60 minutes after administration. Then the blood was sampled and the organs of interest were excised. After measured the weight of these specimens, the radioactivities of the blood and organs were measured. After half-life of the radioactivities were corrected, the accumulation rate (% dose/g of the tissue) was obtained.

[3] = loaded with verapamil about 10 mg/kg, 2 Minutes
[4] = loaded with verapamil about 10 mg/kg, 5 Minutes
[5] = loaded with verapamil about 10 mg/kg, 10 Minutes
[6] = loaded with verapamil about 10 mg/kg, 30 Minutes
[7] = loaded with verapamil about 10 mg/kg, 60 Minutes

## CC(C)NC(C)Cc1ccc(I)cc1 (centres unmarked) [123I-IMP, N-isopropyl-p-iodoamphetamine]
Human plasma protein
  free of fraction of 123I-IMP (%): 29.29%
[1]; control group, 2 Minutes
  Free fraction (%) of 123I-IMP in the blood of rats: 56.75 ± 9.21%
[1]; control group, 5 Minutes
  Free fraction (%) of 123I-IMP in the blood of rats: 50.70 ± 10.37%
[1]; control group, 10 Minutes
  Free fraction (%) of 123I-IMP in the blood of rats: 45.91 ± 3.12%
[1]; control group, 30 Minutes
  Free fraction (%) of 123I-IMP in the blood of rats: 27.29 ± 4.85%
[1]; control group, 60 Minutes
  Free fraction (%) of 123I-IMP in the blood of rats: 16.77 ± 4.11%
[1]; test group with verapamil loading, 2 Minutes
  Free fraction (%) of 123I-IMP in the blood of rats: 52.40 ± 6.00%
[1]; test group with verapamil loading, 5 Minutes
  Free fraction (%) of 123I-IMP in the blood of rats: 56.52 ± 4.38%
[1]; test group with verapamil loading, 10 Minutes
  Free fraction (%) of 123I-IMP in the blood of rats: 66.86 ± 6.34%
[1]; test group with verapamil loading, 30 Minutes
  Free fraction (%) of 123I-IMP in the blood of rats: 38.03 ± 6.69%
[1]; test group with verapamil loading, 60 Minutes
  Free fraction (%) of 123I-IMP in the blood of rats: 31.86 ± 8.23%
[2]; control group, 2 Minutes
  Biodistribution of 123I-IMP, Blood: 0.198 ± 0.052 % Dose/g Tissue
  Biodistribution of 123I-IMP, Brain: 1.800 ± 0.418 % Dose/g Tissue
  Biodistribution of 123I-IMP, Heart: 1.949 ± 0.293 % Dose/g Tissue
  Biodistribution of 123I-IMP, Kidney: 3.406 ± 0.905 % Dose/g Tissue
  Biodistribution of 123I-IMP, Liver: 0.506 ± 0.109 % Dose/g Tissue
  Biodistribution of 123I-IMP, Lung: 11.236 ± 0.780 % Dose/g Tissue
  Biodistribution of 123I-IMP, Pancreas: 1.503 ± 0.353 % Dose/g Tissue
  Biodistribution of 123I-IMP, Spleen: 0.880 ± 0.216 % Dose/g Tissue
  Biodistribution of 123I-IMP, Stomach: 0.302 ± 0.065 % Dose/g Tissue
[2]; control group, 5 Minutes
  Biodistribution of 123I-IMP, Blood: 0.133 ± 0.005 % Dose/g Tissue
  Biodistribution of 123I-IMP, Brain: 1.476 ± 0.225 % Dose/g Tissue
  Biodistribution of 123I-IMP, Heart: 1.014 ± 0.070 % Dose/g Tissue
  Biodistribution of 123I-IMP, Kidney: 2.285 ± 0.256 % Dose/g Tissue
  Biodistribution of 123I-IMP, Liver: 0.699 ± 0.061 % Dose/g Tissue
  Biodistribution of 123I-IMP, Lung: 9.000 ± 0.600 % Dose/g Tissue
  Biodistribution of 123I-IMP, Pancreas: 1.923 ± 0.445 % Dose/g Tissue
  Biodistribution of 123I-IMP, Spleen: 0.999 ± 0.355 % Dose/g Tissue
  Biodistribution of 123I-IMP, Stomach: 0.500 ± 0.078 % Dose/g Tissue
[2]; control group, 10 Minutes
  Biodistribution of 123I-IMP, Blood: 0.116 ± 0.011 % Dose/g Tissue
  Biodistribution of 123I-IMP, Brain: 1.006 ± 0.379 % Dose/g Tissue
  Biodistribution of 123I-IMP, Heart: 0.631 ± 0.111 % Dose/g Tissue
  Biodistribution of 123I-IMP, Kidney: 1.303 ± 0.190 % Dose/g Tissue
  Biodistribution of 123I-IMP, Liver: 0.711 ± 0.143 % Dose/g Tissue
  Biodistribution of 123I-IMP, Lung: 6.279 ± 1.026 % Dose/g Tissue
  Biodistribution of 123I-IMP, Pancreas: 1.721 ± 0.217 % Dose/g Tissue
  Biodistribution of 123I-IMP, Spleen: 1.008 ± 0.074 % Dose/g Tissue
  Biodistribution of 123I-IMP, Stomach: 0.407 ± 0.230 % Dose/g Tissue
[2]; control group, 30 Minutes
  Biodistribution of 123I-IMP, Blood: 0.136 ± 0.028 % Dose/g Tissue
  Biodistribution of 123I-IMP, Brain: 1.346 ± 0.345 % Dose/g Tissue
  Biodistribution of 123I-IMP, Heart: 0.524 ± 0.037 % Dose/g Tissue
  Biodistribution of 123I-IMP, Kidney: 1.359 ± 0.222 % Dose/g Tissue
  Biodistribution of 123I-IMP, Liver: 1.192 ± 0.536 % Dose/g Tissue
  Biodistribution of 123I-IMP, Lung: 5.209 ± 1.446 % Dose/g Tissue
  Biodistribution of 123I-IMP, Pancreas: 2.032 ± 0.505 % Dose/g Tissue
  Biodistribution of 123I-IMP, Spleen: 1.356 ± 0.277 % Dose/g Tissue
  Biodistribution of 123I-IMP, Stomach: 0.885 ± 0.366 % Dose/g Tissue
[2]; control group, 60 Minutes
  Biodistribution of 123I-IMP, Blood: 0.181 ± 0.006 % Dose/g Tissue
  Biodistribution of 123I-IMP, Brain: 1.511 ± 0.011 % Dose/g Tissue
  Biodistribution of 123I-IMP, Heart: 0.540 ± 0.026 % Dose/g Tissue
  Biodistribution of 123I-IMP, Kidney: 1.585 ± 0.132 % Dose/g Tissue
  Biodistribution of 123I-IMP, Liver: 1.442 ± 0.164 % Dose/g Tissue
  Biodistribution of 123I-IMP, Lung: 5.186 ± 0.616 % Dose/g Tissue
  Biodistribution of 123I-IMP, Pancreas: 1.957 ± 0.345 % Dose/g Tissue
  Biodistribution of 123I-IMP, Spleen: 1.290 ± 0.138 % Dose/g Tissue
  Biodistribution of 123I-IMP, Stomach: 1.245 ± 0.343 % Dose/g Tissue
[2]; [3]
  Biodistribution of 123I-IMP, Blood: 0.238 ± 0.083 % Dose/g Tissue
  Biodistribution of 123I-IMP, Brain: 1.584 ± 0.425 % Dose/g Tissue
  Biodistribution of 123I-IMP, Heart: 3.769 ± 0.911 % Dose/g Tissue
  Biodistribution of 123I-IMP, Kidney: 1.424 ± 0.313 % Dose/g Tissue
  Biodistribution of 123I-IMP, Liver: 0.287 ± 0.156 % Dose/g Tissue
  Biodistribution of 123I-IMP, Lung: 9.234 ± 1.748 % Dose/g Tissue
  Biodistribution of 123I-IMP, Pancreas: 1.268 ± 0.375 % Dose/g Tissue
  Biodistribution of 123I-IMP, Spleen: 0.052 ± 0.025 % Dose/g Tissue
  Biodistribution of 123I-IMP, Stomach: 0.234 ± 0.111 % Dose/g Tissue
[2]; [4]
  Biodistribution of 123I-IMP, Blood: 0.228 ± 0.012 % Dose/g Tissue
  Biodistribution of 123I-IMP, Brain: 1.916 ± 0.131 % Dose/g Tissue
  Biodistribution of 123I-IMP, Heart: 2.260 ± 0.680 % Dose/g Tissue
  Biodistribution of 123I-IMP, Kidney: 1.278 ± 0.381 % Dose/g Tissue
  Biodistribution of 123I-IMP, Liver: 0.350 ± 0.130 % Dose/g Tissue
  Biodistribution of 123I-IMP, Lung: 8.377 ± 0.563 % Dose/g Tissue
  Biodistribution of 123I-IMP, Pancreas: 1.659 ± 0.496 % Dose/g Tissue
  Biodistribution of 123I-IMP, Spleen: 0.063 ± 0.250 % Dose/g Tissue
  Biodistribution of 123I-IMP, Stomach: 0.164 ± 0.078 % Dose/g Tissue
[2]; [5]
  Biodistribution of 123I-IMP, Blood: 0.139 ± 0.003 % Dose/g Tissue
  Biodistribution of 123I-IMP, Brain: 2.145 ± 0.410 % Dose/g Tissue
  Biodistribution of 123I-IMP, Heart: 1.247 ± 0.209 % Dose/g Tissue
  Biodistribution of 123I-IMP, Kidney: 1.766 ± 0.678 % Dose/g Tissue
  Biodistribution of 123I-IMP, Liver: 0.688 ± 0.237 % Dose/g Tissue
  Biodistribution of 123I-IMP, Lung: 6.947 ± 1.486 % Dose/g Tissue
  Biodistribution of 123I-IMP, Pancreas: 1.911 ± 0.685 % Dose/g Tissue
  Biodistribution of 123I-IMP, Spleen: 0.213 ± 0.118 % Dose/g Tissue
  Biodistribution of 123I-IMP, Stomach: 0.377 ± 0.013 % Dose/g Tissue
[2]; [6]
  Biodistribution of 123I-IMP, Blood: 0.098 ± 0.044 % Dose/g Tissue
  Biodistribution of 123I-IMP, Brain: 1.529 ± 0.811 % Dose/g Tissue
  Biodistribution of 123I-IMP, Heart: 0.471 ± 0.209 % Dose/g Tissue
  Biodistribution of 123I-IMP, Kidney: 1.231 ± 0.632 % Dose/g Tissue
  Biodistribution of 123I-IMP, Liver: 1.185 ± 0.751 % Dose/g Tissue
  Biodistribution of 123I-IMP, Lung: 3.890 ± 2.223 % Dose/g Tissue
  Biodistribution of 123I-IMP, Pancreas: 1.877 ± 0.886 % Dose/g Tissue
  Biodistribution of 123I-IMP, Spleen: 0.886 ± 0.319 % Dose/g Tissue
  Biodistribution of 123I-IMP, Stomach: 0.782 ± 0.621 % Dose/g Tissue
[2]; [7]
  Biodistribution of 123I-IMP, Blood: 0.110 ± 0.002 % Dose/g Tissue
  Biodistribution of 123I-IMP, Brain: 1.449 ± 0.281 % Dose/g Tissue
  Biodistribution of 123I-IMP, Heart: 0.456 ± 0.039 % Dose/g Tissue
  Biodistribution of 123I-IMP, Kidney: 1.242 ± 0.146 % Dose/g Tissue
  Biodistribution of 123I-IMP, Liver: 1.639 ± 0.051 % Dose/g Tissue
  Biodistribution of 123I-IMP, Lung: 4.133 ± 0.079 % Dose/g Tissue
  Biodistribution of 123I-IMP, Pancreas: 1.478 ± 0.161 % Dose/g Tissue
  Biodistribution of 123I-IMP, Spleen: 1.193 ± 0.129 % Dose/g Tissue
  Biodistribution of 123I-IMP, Stomach: 1.058 ± 0.126 % Dose/g Tissue
